Test results as given in patent US20080194679A1, “Compositions and methods for increasing metabolic activity in animal tissue” (priority 2007, published 2008).
Marks after values point to notes of the source that are not given here.

What was measured:
[1] = chicks, 21 days, 40 mg zinc per day per kg feed
Experimental: (§1) A group of one day old chicks were administered 40 mg zinc per day per kg feed for 21 consecutive days. […] At the end of 21 days, all chicks in all groups were killed, freeze dried, and a whole body assay for zinc performed.

[2] = chicks, 21 Day, 40 mg zinc per day per kg feed
Experimental: as §1

[3] = Isotope study: deposition of 65zinc into male sex organ tissues after single intravenous dose; assay type: in vivo; conditions: zinc sufficient adult male rats, single I.V. dose 0.06 mg zinc, 24 hours post-dosing
Experimental: In an isotope study, three groups of zinc sufficient adult male rats (6/group) received a single intravenous (I.V.) dose of 0.06 mg zinc containing 10 microcurines of zinc chelated to either arginine or glycine or as zinc chloride (ZnCl2). The arginine contained about twice as much nitrogen bonded to the zinc atom as did glycine. The ZnCl2 had no nitrogen bonded to the zinc. Twenty four hours post-dosing, all animals were sacrificed and their testes, epididymis, and seminal vesicles were assayed for zinc. The male sex organs were targeted for these zinc assays because of the dominant role zinc plays in their proper functioning. In theory, the uptake of zinc from the three sources into the tissues should have been equivalent since all three sources were administered by I.V. and none of the animals was zinc deficient.
As noted above, arginine has about twice as much nitrogen in the ligand as glycine.

[4] = Tied-off ileum section dosed with 65Zn solution; 65Zn in liver, heart and spleen by liquid scintillation; assay type: in vivo; conditions: non-fasted rats, 1×10^−4M solution in tied off ileum section, 2 hours post dosing
Experimental: Non-fasted rats were first anesthetized and then their intestines exposed. A 10 cm section of the ileum was tied off at both ends extending 15 cm to 5 cm proximal to the ileoceal valve. At each end, a 0.5 cm incision was made allowing the tied off section to be thoroughly washed with Ringers solution via the incisions. A solution containing ^65ZnCl2 or ^65Zn Histidine (1×10^−4M) was introduced into the tied off section. At 2 hours post dosing, the rats were killed by cervical dislocation. Their livers, hearts, and spleens were taken, weighed, dissected, and assayed by liquid scintillation for ^65Zn.

[5] = Iron source fed to gestating sows; piglet blood hemoglobin, hematocrit and serum ferritin at farrowing; assay type: in vivo, sows / piglets; conditions: sows fed iron source daily from 4 weeks before farrowing
Source text: Ferrous iron was chelated to various high nitrogen-containing amino acid chelates. Six grams of such a chelate formula (0.6 g Fe) was fed daily to gestating sows beginning 4 weeks before expected farrowing. Another group of gestating sows received 2 g daily of ferrous fumarate (0.67 g Fe) for the same period. One week prior to farrowing, the dosages of iron were doubled for each group.
At farrowing blood samples were taken from each piglet and assayed for hemoglobin, hematocrit, and serum ferritin. The hemoglobin and hematocrit represent current iron status but serum ferritin represents iron storage for future use.

| Molecule | zinc retention in the body (in words) [1] | Body Weight [2] | Gain/Feed [2] | also measured |
| --- | --- | --- | --- | --- |
| O=[N+]([O-])[O-].O=[N+]([O-])[O-].[Zn+2] [Zn Nitrate, zinc nitrate] | similar | 734.98 g | 0.74 g |  |
| NCC(=O)[O-].NCC(=O)[O-].[Zn+2] [Zn Bisglycinate (2:1), zinc bisglycinate (2:1)] | increased to some degree | 812.55 g | .078 g |  |
| [Cl-].[Cl-].[Zn+2] [^65Zn Chloride, zinc chloride] |  |  |  | Deposition of ^65zinc into tissue: Epididymis ([3]; epididymis): Negligible; Deposition of ^65zinc into tissue: Seminal Vesicle ([3]; seminal vesicle): Negligible; Deposition of ^65zinc into tissue: Testes ([3]; testes): Negligible; ^65Zn in tissue: Heart ([4]; heart): 1.00 ± 0.33 number × 10^−10 Zn/gm; ^65Zn in tissue: Liver ([4]; liver): 8.67 ± 5.67 number × 10^−10 Zn/gm; ^65Zn in tissue: Spleen ([4]; spleen): 3.50 ± 0.25 number × 10^−10 Zn/gm |
| zinc bisarginate (2:1) [Zn Bisarginate (2:1)] | increased over zinc bisglycinate (2:1) significantly | 829.15 g | .078 g |  |
| O=C([O-])/C=C/C(=O)[O-].[Fe+2] [Ferrous Fumarate, ferrous fumarate] |  |  |  | Serum Ferritin ([5]; a/b P < 0.01): 20.1^b ng/ml; Hematocrit ([5]; doubled in the last week): 33.2%; Hemoglobin ([5]; doubled in the last week): 9.7 g/dL |
| zinc glycinate (1:1) [Zn Glycinate (1:1)] | similar | 817.08 g | 0.77 g |  |
